From patent US10500209B2, “Quinazolinones as bromodomain inhibitors” (Zenith Epigenetics Ltd., priority 2013, dated 2019)

How the values were obtained:
[1] = target: T1, Brd4 bromodomain 1 (BRD4(1)) (Homo sapiens, UniProt O60885); test: Inhibition of tetra-acetylated histone H4 binding to BET bromodomains (TR-FRET); design: key: Active: Compounds with an IC50 value less than 30 μM were deemed to be active.; Not Active: Compounds with an IC50 value less than 30 μM were deemed to be active; details: first bromodomain of Brd4, tetra-acetylated histone H4 peptide
T1 construct: made in house; host or cells: E. coli BL21(DE3)
Protocol: Proteins were cloned and overexpressed with a N-terminal 6×His tag, then purified by nickel affinity followed by size exclusion chromatography. Briefly, E. coli BL21(DE3) cells were transformed with a recombinant expression vector encoding N-terminally Nickel affinity tagged bromodomains from Brd2, Brd3, Brd4. Cell cultures were incubated at 37° C. with shaking to the appropriate density and induced overnight with IPTG. The supernatant of lysed cells was loaded onto Ni-IDA column for purification. Eluted protein is pooled, concentrated and further purified by size exclusion chromatography. Fractions representing monomeric protein were pooled, concentrated, aliquoted, and frozen at −80° C. for use in subsequent experiments.
Binding of tetra-acetylated histone H4 and BET bromodomains was confirmed by a Time Resolved Fluorescence Resonance Energy Transfer (TR-FRET) method. N-terminally His-tagged bromodomains (200 nM) and biotinylated tetra-acetylated histone H4 peptide (25-50 nM, Millipore) were incubated in the presence of Europium Cryptate-labeled streptavidin (Cisbio Cat. #610SAKLB) and XL665-labeled monoclonal anti-His antibody (Cisbio Cat. #61HISXLB) in a white 96 well microtiter plate (Greiner). For inhibition assays, serially diluted test compound was added to these reactions in a 0.2% final concentration of DMSO. Final buffer concentrations were 30 mM HEPES pH 7.4, 30 mM NaCl, 0.3 mM CHAPS, 20 mM phosphate pH 7.0, 320 mM KF, 0.08% BSA). After a 2-h incubation at room temperature, the fluorescence by FRET was measured at 665 and 620 nm by a SynergyH4 plate reader (Biotek). The binding inhibitory activity was shown by a decrease in 665 nm fluorescence relative to 620 nm. IC50 values were determined from a dose response curve.

[2] = test system: c-myc in MV4-11 cells; test: Inhibition of c-myc expression in cancer cell lines (mRNA, real-time PCR); assay type: cell-based, Human; design: key: Active: Compounds with an IC50 value less than 30 μM were deemed to be active.; Not Active: Compounds with an IC50 value less than 30 μM were deemed to be active; details: 3 h
Protocol: MV4-11 cells (2.5×10^4 cells) were plated in 96 well U-bottom plates with test compound or DMSO (0.1%), and incubated for 3 h at 37° C. Cells were then harvested by centrifugation, lysed, and mRNA was isolated using the mRNA catcher plus kit (Invitrogen). Reverse transcription of the mRNA and duplex amplification of the c-myc and cyclophilin cDNAs was performed using the RNA Ultrasense kit (Invitrogen) and a ViiA7 real-time PCR machine (Applied Biosystems). IC50 values were determined from a dose response curve.

[3] = test system: human AML MV-4-11 cells; test: Inhibition of cell proliferation in cancer cell lines (CellTiter Aqueous One); assay type: cell-based; design: key: Active: Compounds with an IC50 value less than 30 μM were deemed to be active.; Not Active: Compounds with an IC50 value less than 30 μM were deemed to be active; details: 72 h
Protocol: MV4-11 cells: 96-well plates were seeded with 5×10^4 cells per well of exponentially growing human AML MV-4-11 (CRL-9591) cells and immediately treated with two-fold dilutions of test compounds, ranging from 30 μM to 0.2 μM. Triplicate wells were used for each concentration, as well as a media only and three DMSO control wells. The cells and compounds were incubated at 37° C., 5% CO2 for 72 h before adding 20 μL of the CellTiter Aqueous One Solution (Promega) to each well and incubating at 37° C., 5% CO2 for an additional 3-4 h. The absorbance was taken at 490 nm in a spectrophotometer and the percentage of proliferation relative to DMSO-treated cells was calculated after correction from the blank well. IC50 were calculated using the GraphPad Prism software.

Row | FRET activity BRD4(1) [1] | c-myc activity (IC50 < 30 μM) [2] | Cell Proliferation activity (IC50 < 30 μM) [3] | melting point [°C] | Compound
1 | Active | Active | Active | 178 to 181 | COc1cc(OC)c2c(=O)[nH]c(-c3ncc(OCCNC(C)C)cc3NC3CCN(C(C)C)CC3)nc2c1 [Example 67, 2-{5-[2-(Isopropylamino)ethoxy]-3-(1-isopropylpiperidin-4-ylamino)pyridin-2-yl}-5,7-dimethoxyquinazolin-4(3H)-one]
2 | Active | – | Not Active | 239 to 240 | COc1ccc(-c2nc3cc(OC)cc(OC)c3c(=O)[nH]2)c(NCCN2CCOCC2)c1 [Example 14, 5,7-Dimethoxy-2-(4-methoxy-2-((2-morpholinoethyl)amino)phenyl)-quinazolin-4(3H)-one]
3 | Active | – | Not Active | 263 to 265 | COc1ccc(-c2nc3cc(OC)cc(OC)c3c(=O)[nH]2)c([S+]([O-])C2CCN(C)CC2)c1 (centres unmarked) [Example 23, 5,7-Dimethoxy-2-[4-methoxy-2-(1-methylpiperidin-4-ylsulfinyl)phenyl]quinazolin-4(3H)-one]
4 | Active | Active | Active | 220 to 222 | COc1ccc(CNc2cc(OC)c3c(=O)[nH]c(-c4ncccc4NC4CCN(C(C)C)CC4)nc3c2)cc1 [Example 61, 2-(3-((1-Isopropylpiperidin-4-yl)amino)pyridin-2-yl)-5-methoxy-7-((4-methoxybenzyl)amino)quinazolin-4(3H)-one]
5 | Active | Active | – | 207 to 209 | COc1ccc(-c2nc3cc(OC)cc(OC)c3c(=O)[nH]2)c(NCC2CCCN2C(C)C)c1 (centres unmarked) [Example 17, 2-(2-(((1-Isopropylpyrrolidin-2-yl)methyl)amino)-4-methoxyphenyl)-5,7-dimethoxyquinazolin-4(3H)-one]
6 | Active | – | Not Active | 286 to 287 | COc1ccc(-c2nc3cc(OC)cc(OC)c3c(=O)[nH]2)c(NC2CCOCC2)c1 [Example 9, 5,7-dimethoxy-2-(4-Methoxy-2-((tetrahydro-2H-pyran-4-yl)amino)-phenyl)quinazolin-4(3H)-one]
7 | Active | Active | Active | – | COc1ccc(-c2nc3cc(OC)cc(OC)c3c(=O)[nH]2)c(NCCCN2CCCC2)c1 [Example 15, 5,7-Dimethoxy-2-(4-methoxy-2-((3-(pyrrolidin-1-yl)propyl)amino)phenyl)quinazolin-4(3H)-one]
8 | Active | – | Active | 207 to 208 | COc1cnc(-c2nc3cc(OC)cc(OC)c3c(=O)[nH]2)c(NC2CCN(C(C)C)CC2)c1 [Example 30, 2-(3-((1-Isopropylpiperidin-4-yl)amino)-5-methoxypyridin-2-yl)-5,7-dimethoxyquinazolin-4(3H)-one]
9 | Active | – | Not Active | 256 to 257 | COc1cc(OC)c2c(=O)[nH]c(-c3ncccc3N[C@H]3CC[C@@H](C(=O)NC(C)C)CC3)nc2c1 [Example 63, cis-4-((2-(5,7-Dimethoxy-4-oxo-3,4-dihydroquinazolin-2-yl)pyridin-3-yl)amino)-N-isopropylcyclohexane-1-carboxamide]
